Source: patent US20260116910A1, “POLYCYCLIC COMPOUNDS AND METHODS THEREOF” (HEPAITECH (BEIJING) BIOPHARMA TECHNOLOGY CO., LTD., priority 2021, published 2026)
“And” between values parts separate entries of the source, which are not always exact repeats. Equal values may be shown once. Read-outs that look alike come from different tables or passages of the source.

Key:
[1] = target: MRGPRX4 (Homo sapiens, UniProt Q96LA9); test: MRGPRX4 activation, Fluo-8 Ca2+ FLIPR assay in HEK293T cells stably expressing MRGPRX4; format: cell-based; settings: for EC50: MRGPRX4 activation, Ca2+ fluorescence, no activation in tested range reported as III, read-out: Activity (EC50 μM)
Procedure: In some embodiments, cells were cultured in poly-D-Lys coated blacked walled, clear-bottom 96-well microplates. HEK293T cells stably expressing MRGPRX4 were cultured in DMEM medium supplemented with 10% FBS and 1% PS, at 37° C. in a humidified atmosphere with 5% CO2. Cells were detached by centrifuging (1000 rpm, 3 min). The pellet was re-suspended in medium, and cell density was adjusted to about 1×10^6 cells/mL. 100 μL suspension was seeded to each well of a microplates (cell plate). Cells in the microplates were cultured overnight. In the following day, cells were grown to higher than 95% density in each well.
Ca^2+ fluorescent dye loading: Fluo-8 AM (Screen Quest Fluo-8 AM Calcium Assay Kit, AAT Bioquest, cat. #: 21083) was diluted in HHBS buffer and adjusted to 2 μM (dye buffer). Medium in each well was changed into 50 μL dye buffer carefully. After incubation for 40-60 min under room temperature, the dye buffer was changed into 50 μL HHBS buffer.
The concentration of solution should be determined according to the protocol settings and experimental needs (e.g., Log[M]=−4, −5, −6, −7, −8, and −9). Prepare 2× serial dilution series of compounds (at least 75 μL per well).
A fluorescent signal baseline was measured using FLIPR®Tetra for 30 s. Then 50 μL of the chemical solution would be added to the cell plate. The fluorescent signal would be measured for another 150 s.
Activity of each compound was calculated by the fluorescence change (dF/F0). Curves were fitted to obtain EC50 values. In some embodiments, at least 3 repeats were performed to obtain the average values. For assessment of a compound, gradient diluted solutions of different concentrations were used to treat cells and corresponding responses were used to fit sigmoid function and to derive EC50 in Origin. In some embodiments, assessed concentrations were or included about 10^−4, 10^−4.5, 10^−5, 10^−5.5, 10^−6, 10^−6.5, 10^−7, 10^−8, and/or 10^−9 M; for example, in many instances, assessed concentrations included about 10^−5, 10^−6, 10^−7 and 10^−8 M. In some embodiments, assessed concentrations were about 10^−4, 10^−4.5, 10^−5, 10^−5.5, 10^−6, 10^−7, 10^−8, and 10^−9 M. In some embodiments, assessed concentrations were about 10^−4, 10^−5, 10^−6, 10^−7, 10^−8, and 10^−9 M. In some embodiments, assessed concentrations were about 10^−4, 10^−4.5, 10^−5, 10^−5.5, 10^−6, and 10^−7 M. In some embodiments, assessed concentrations were about 2000000, 1000000, 500000, 250000, 125000, 62500, 31250, 15625, 7813, 3906 nM. […] In some embodiments, assessed concentrations were about 30000, 10000, 3333, 1111, 370, 123, 41, 14, 4.6, 1.5 nM.

[2] = target: T1, human FXR (NR1H4) (Homo sapiens, UniProt Q96RI1); test: Human FXR (NR1H4) agonist assessment, FXRE-NanoLuc reporter in HEK293T cells; format: cell-based; settings: for EC50: read-out: EC50
T1 sequence (Q96RI1 1-476 isoform Q96RI1-1): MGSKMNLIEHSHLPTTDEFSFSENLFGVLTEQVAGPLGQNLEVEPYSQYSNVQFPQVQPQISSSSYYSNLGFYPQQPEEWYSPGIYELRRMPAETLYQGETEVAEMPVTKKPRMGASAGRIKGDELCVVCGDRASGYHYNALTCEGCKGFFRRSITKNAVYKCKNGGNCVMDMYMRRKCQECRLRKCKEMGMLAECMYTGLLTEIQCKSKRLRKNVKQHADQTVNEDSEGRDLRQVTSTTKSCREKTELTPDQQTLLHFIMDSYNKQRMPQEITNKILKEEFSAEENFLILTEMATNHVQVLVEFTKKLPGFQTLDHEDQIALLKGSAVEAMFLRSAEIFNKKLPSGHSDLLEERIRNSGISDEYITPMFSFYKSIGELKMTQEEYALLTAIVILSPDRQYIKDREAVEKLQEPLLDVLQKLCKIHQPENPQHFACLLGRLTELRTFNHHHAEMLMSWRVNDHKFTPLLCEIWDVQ
Procedure: As those skilled in the art appreciate, various technologies are available for assessment of FXR activation in accordance with the present disclosure. […] Human FXR (NR1H4) agonist assessment (see, e.g., Yu et al. eLife 2019; 8: e48431): HEK293T cells stably expressing human FXR and containing FXR response element (FXRE)-NanoLuc reporter were cultured in DMEM medium supplemented with 10% FBS and 1% PS, at 37° C. in a humidified atmosphere with 5% CO2. Cells were detached by centrifuging (1000 rpm, 3 min). The pellet was re-suspended in medium, and cell density was adjusted to about 1×10^6 cells/mL. 100 μL suspension was seeded to each well of a white-walled, clear-bottom 96-well microplates (cell plate). Cells in microplates were cultured overnight.
In the following day, cells were grown to higher than 95% density in each well. Culture medium was replaced, and compounds were added to the wells. 0.01% DMSO (v/v) served as negative control. Plates were incubated at 37° C. in 5% CO2 for 24 hr.
In the following day, a 10 μL aliquot of cell culture medium was removed from each well and combined with 40 μL culture medium plus […] assay buffer (containing 20 mM of the luciferase substrate coelenterazine). After 5 min incubation, luminescence was measured using an EnVision plate reader (PerkinElmer).
In some embodiments, gradient diluted solutions of several concentrations were used to treat cells and corresponding responses were used to fit sigmoid function and to derive EC50 in Origin.

[3] = FXR activation, HEK293T FXRE-NanoLuc reporter, 24 hr

Chain of MRGPRX4 (Q96LA9 whole entry): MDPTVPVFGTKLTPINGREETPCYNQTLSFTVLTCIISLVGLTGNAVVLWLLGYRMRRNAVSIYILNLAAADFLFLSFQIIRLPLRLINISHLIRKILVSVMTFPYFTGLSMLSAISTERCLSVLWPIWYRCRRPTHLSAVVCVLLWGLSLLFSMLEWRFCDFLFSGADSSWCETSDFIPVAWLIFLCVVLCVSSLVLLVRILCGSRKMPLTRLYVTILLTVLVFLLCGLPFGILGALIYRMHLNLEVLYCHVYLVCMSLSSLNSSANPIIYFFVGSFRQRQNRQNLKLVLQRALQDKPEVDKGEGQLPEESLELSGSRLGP

Row | Compound | Efficacy (maximum measured induction of NanoLuc, normalized to CDCA set as 100%) [2, 3] | EC50 [2, 3] [nM] | other results
1 | CC[C@H]1[C@@H](O)[C@@H]2[C@H](CC[C@]3(C)[C@@H]([C@H](C)CCC(=O)O)CC[C@@H]23)[C@@]2(C)CC[C@H](F)C[C@@H]12 [1-1] | C (100%<efficacy <=300%) | 1000 to 10000 | EC50 [1]: > 100 µM
2 | CO/N=C1\C[C@@H]2C[C@H](OC(C)=O)CC[C@]2(C)[C@H]2CC[C@]3(C)[C@@H]([C@H](C)CCC(=O)OC)CC[C@H]3[C@H]12 [1-2] | D (efficacy <=100%) | > 10000 | MRGPRX4 activation, fluorescence change (dF/F0), Average ([1]; Conc. (Log[M]) −5): 0.027 and 0.022; EC50 [1]: 50 to 100 µM
3 | COC(=O)CC[C@@H](C)[C@H]1CC[C@H]2[C@@H]3/C(=N\OC(C)(C)C(=O)O)C[C@@H]4C[C@H](OC(C)=O)CC[C@]4(C)[C@H]3CC[C@]12C [1-3] | C (100%<efficacy <=300%) | > 10000 | MRGPRX4 activation, fluorescence change (dF/F0), Average ([1]; Conc. (Log[M]) −4): 0.109; MRGPRX4 activation, fluorescence change (dF/F0), Average ([1]; Conc. (Log[M]) −4.5): 0.114; MRGPRX4 activation, fluorescence change (dF/F0), Average ([1]; Conc. (Log[M]) −5): 0.047; MRGPRX4 activation, fluorescence change (dF/F0), Average ([1]; Conc. (Log[M]) −5.5): −0.026; MRGPRX4 activation, fluorescence change (dF/F0), Average ([1]; Conc. (Log[M]) −6): −0.008; MRGPRX4 activation, fluorescence change (dF/F0), Average ([1]; Conc. (Log[M]) −7): 0.018; MRGPRX4 activation, fluorescence change (dF/F0), Average ([1]; Conc. (Log[M]) −8): −0.003; MRGPRX4 activation, fluorescence change (dF/F0), Average ([1]; Conc. (Log[M]) −9): 0.008; EC50 [1]: < 50 µM
4 | CC[C@H]1[C@@H](O)[C@@H]2[C@H](CC[C@]3(C)[C@@H]([C@H](C)CCN)CC[C@@H]23)[C@@]2(C)CCC(F)(F)C[C@@H]12 [11-1] | C (100%<efficacy <=300%) | > 10000 | –
5 | CC[C@H]1[C@@H](O)[C@@H]2[C@H](CC[C@]3(C)[C@@H]([C@H](C)CCc4nnc(C(C)C)s4)CC[C@@H]23)[C@@]2(C)CCCC[C@@H]12 [15-1] | B (300%<efficacy <=400%) | 1000 to 10000 | –
6 | CC[C@H]1[C@@H](O)[C@@H]2[C@H](CC[C@]3(C)[C@@H]([C@H](C)CCc4nnc(N)[nH]4)CC[C@@H]23)[C@@]2(C)CCCC[C@@H]12 [15-2] | C (100%<efficacy <=300%) | < 1000 | –
7 | CC[C@H]1[C@@H](O)[C@@H]2[C@H](CC[C@]3(C)[C@@H]([C@H](C)CCc4nnc(NS(=O)(=O)c5ccc6c(c5)OCO6)[nH]4)CC[C@@H]23)[C@@]2(C)CCCC[C@@H]12 [15-3] | C (100%<efficacy <=300%) | 1000 to 10000 | –
8 | CC[C@H]1[C@@H](O)[C@@H]2[C@H](CC[C@]3(C)[C@@H]([C@H](C)CCC(=O)Nc4nnn[nH]4)CC[C@@H]23)[C@@]2(C)CCCC[C@@H]12 [16-1] | – | 1000 to 10000 | Efficacy (maximum measured induction of NanoLuc, normalized to CDCA set as 100%) [2]: B (key: A: efficacy >400%; B: 300%<efficacy <=400%; C: 100%<efficacy <=300%; D: efficacy <=100%)
9 | CC[C@H]1[C@@H](O)[C@@H]2[C@H](CC[C@]3(C)[C@@H]([C@H](C)Cc4nnn[nH]4)CC[C@@H]23)[C@@]2(C)CCCC[C@@H]12 [16-2] | C (100%<efficacy <=300%) | < 1000 | –
10 | CC[C@H]1[C@@H](O)[C@@H]2[C@H](CC[C@]3(C)[C@@H]([C@H](C)CCNC(=N)N)CC[C@@H]23)[C@@]2(C)CCCC[C@@H]12 [17-1] | A (efficacy >400%) | < 1000 | –
11 | CC[C@H]1[C@@H](O)[C@@H]2[C@H](CC[C@]3(C)[C@@H]([C@H](C)CCNC(=N)NS(=O)(=O)c4cccs4)CC[C@@H]23)[C@@]2(C)CCCC[C@@H]12 [17-2] | B (300%<efficacy <=400%) | < 1000 | –
12 | CC[C@H]1[C@@H](O)[C@@H]2[C@H](CC[C@]3(C)[C@@H]([C@H](C)CCOC(=O)NS(=O)(=O)c4ccc5c(c4)CCC(C)(C)O5)CC[C@@H]23)[C@@]2(C)CCCC[C@@H]12 [19-1] | B (300%<efficacy <=400%) | < 1000 | –
13 | CC[C@H]1[C@@H](O)[C@@H]2[C@H](CC[C@]3(C)[C@@H]([C@H](C)CCOC(=O)NS(=O)(=O)c4ccc(N5CCCCC5)nc4)CC[C@@H]23)[C@@]2(C)CCCC[C@@H]12 [19-2] | B (300%<efficacy <=400%) | < 1000 | –
14 | CC[C@H]1[C@@H](O)[C@@H]2[C@H](CC[C@]3(C)[C@@H]([C@H](C)CCOC(=O)NS(=O)(=O)c4ccc(C(C)(C)CF)cc4)CC[C@@H]23)[C@@]2(C)CCCC[C@@H]12 [19-3] | A (efficacy >400%) | < 1000 | –
15 | C[C@H](CCNC(=O)NS(=O)(=O)c1ccc(C(C)(C)CF)cc1)[C@H]1CC[C@H]2[C@@H]3CC[C@@H]4CCCC[C@]4(C)[C@H]3CC[C@]12C [21-1] | – | 1000 to 10000 | Efficacy (maximum measured induction of NanoLuc, normalized to CDCA set as 100%) [2]: B (key: A: efficacy >400%; B: 300%<efficacy <=400%; C: 100%<efficacy <=300%; D: efficacy <=100%)
16 | C[C@H](CCCOC(=O)NS(=O)(=O)c1ccc(C(C)(C)CF)cc1)[C@H]1CC[C@H]2[C@@H]3CC[C@@H]4CCCC[C@]4(C)[C@H]3CC[C@]12C [22-1] | – | 1000 to 10000 | Efficacy (maximum measured induction of NanoLuc, normalized to CDCA set as 100%) [2]: B (key: A: efficacy >400%; B: 300%<efficacy <=400%; C: 100%<efficacy <=300%; D: efficacy <=100%)
17 | C[C@H](CNC(=O)NS(=O)(=O)c1ccc(C(C)(C)CF)cc1)[C@H]1CC[C@H]2[C@@H]3CC[C@@H]4CCCC[C@]4(C)[C@H]3CC[C@]12C [23-1] | B (300%<efficacy <=400%) | 1000 to 10000 | –
18 | C[C@H](CCCCNC(=O)NS(=O)(=O)c1ccc(C(C)(C)CF)cc1)[C@H]1CC[C@H]2[C@@H]3CC[C@@H]4CCCC[C@]4(C)[C@H]3CC[C@]12C [24-1] | B (300%<efficacy <=400%) | 1000 to 10000 | –
19 | C[C@H](CCC(=O)O)[C@H]1CC[C@H]2[C@@H]3CC[C@@H]4C[C@H](O)CC[C@]4(C)[C@H]3C[C@@H](O)[C@]12C [RC-4] | A (efficacy >400%) | < 1000 | –
